Measurements reported in US12005078B2, “Genetically engineered drug resistant T cells and methods of using the same” (The UAB Research Foundation, priority 2015, dated 2024).

Key:
X12P glioma = assay: Survival of glioma-bearing mice; format: in vivo
Excerpt: (§1) The expression of NKG2DL on tumor cells increases the overall potency of γδ T cell therapy. FIGS. 5A and 5B show the survival of X12P and X12T (TMZ resistant) glioma-bearing mice, respectively, in response to various treatments. […] The DRI treatment regimen increased median survival from 57 to 75 days over the TMZ treatment regimen. […] The DRI treatment regimen increased median survival from 22 to 27 days over the TMZ treatment regimen. The effect of the DRI treatment regimen could be increased by intensification of the administration of the γδ T cells and NK cells from a single administration per week (as shown in FIG. 2) to two administrations per week (data not shown).

X12T glioma = assay: Survival of TMZ-resistant glioma-bearing mice; format: in vivo; settings: cells given as single administration per week
Excerpt: as §1

In the case of `Cn1nnc2c(C(N)=O)ncn2c1=O` [TMZ, temozolomide], the median survival (X12P glioma) is reported as 57 days and the median survival (X12T glioma) is reported as 22 days.
